# Key:
# A549 cells = experiment: A549 cell death test by flow cytometry; assay type: cell-based; settings: A549, 24 h, compared with blank control group
# Experimental: The method was the same as that in 1(1).
# The method was the same as that in 1(2), wherein, the concentration of DOTAP cationic lipid was 4 μg/ml, 8 μg/ml, 16 μg/ml and 32 μg/ml respectively, and the concentration of the pMVA-1/DOTAP complex was expressed by that of DOTAP cationic lipid.
# The method was the same as that in 1(3).
# a. A549 cells treated by different samples in the Step (3) were washed twice with cold PBS, and resuspended with 1× binding buffer for preparing a cell suspension with a density of 1×10^6 cells/ml;
# b. 100 μl of A549 cell suspension prepared in Step a was pipetted into the flow test tube;
# c. 5 μl of FITC Annexin V and 5 μl of PI were added to the flow test tube in Step b, mixed gently, and incubated at room temperature for 15 min in the dark;
# d. 400 μl of 1× binding buffer was added to the flow test tube in Step c and tested by flow cytometry;
# [1] = test system: mouse colorectal cancer cell line CT26; experiment: Experiment (1): model mice with abdominal metastasis of CT26, treated 9 times; assay type: in vivo
# Experimental: Balb/c mice aged 6-8 weeks were raised. The mouse colorectal cancer cell line CT26 cultured to the logarithmic growth phase was prepared into a cell suspension, and mouse abdominal tumor was modeled by intraperitoneal injection. The number of cells injected into each mouse was 2×10^5, and the injection system was 100 μl for each mouse.
# As described in Table 14, the mice that had been successfully modeled were divided into groups as follows: Normal group was not inoculated with tumor cell nor administrated with drugs; untreated group was intraperitoneally inoculated with CT26 cells instead of drugs; NS group was intraperitoneally inoculated with tumor cells and administrated with normal saline. After inoculation of the tumor, mice were intraperitoneally administrated on the 3rd day as follows: 15 μg of plasmid DNA and 75 μg of DOTAP for each mouse in the treatment group of plasmid DNA/DOTAP complex group; i.e. the mass ratio of plasmid DNA to DOTAP was 1:5. After that, they were administrated every three days for a total of 9 times.
# The mice were administrated for 9 times in total and allowed to die naturally. The natural death dates of the mice in each experimental group were recorded, and the body weight and survival time of the mice in each experimental group were counted. The volume of ascites were counted, tumors were removed and weighed.
# lysosomes in A549 cells = experiment: Lysosomal acidity gradient by Lysotracker Red / YOYO1 probes; assay type: cell-based; settings: flow cytometry, 1 h, 3 h, 6 h and 9 h
# Experimental: a. Preparation of YOYO1 working fluid: the YOYO1 stock solution was diluted with 1640 serum-free medium at the volume ratio of 1:200;
# b. The pMVA-1 plasmid was added to the YOYO1 working fluid prepared in the Step (1) according to a volume ratio of 1:40, and incubated at 37° C. for 1 h.
# a. The YOYO1 fluorescent labeled pMVA-1 plasmid prepared in Step 1 was mixed with the DOTAP cationic lipid to form a complex;
# b. The YOYO1 fluorescently labeled pMVA-1/DOTAP complex prepared in Step a was added to A549 cells, followed by making two control groups i.e. YOYO1 fluorescently labeled pMVA-1 plasmid group (PMVA) and DOTAP cationic lipid group (DOTAP), and blank control group containing cell culture fluid only.
# (1) Preparation of Lysotracher Red working fluid: the Lysotracher Red stock solution was added to the cell culture fluid at a volume ratio of 1:20000 and incubated at 37° C.
# a. The A549 cell culture fluid in Step 1 was removed, the Lysotracker Red staining working fluid prepared in Step (1) was added to the cells, and incubated at 37° C. for 1 h; […]
# c. A549 cells in Step b were collected and the number of fluorescent cells were quantitatively tested by flow cytometry.
# lysosomes of A549 cells = experiment: Lysosomal membrane permeability by CathepsinB intracellular localization; assay type: cell-based; settings: 3 h, immunofluorescence, confocal microscope
# Experimental: (1) Inoculation of A549 cells in plates: round sterilized cell slides were placed at the bottom of a 6-well plate, inoculated A549 cells into the 6-well plate as per 1×10^5 cells/well, 2 ml of medium was added to each well, and incubated overnight.
# (2) The medium (blank control group), pMVA-1 plasmid (control group PMVA), DOTAP cationic lipid (control group DOTAP) and pMVA-1/DOTAP complex (experimental group PMVA-DOTAP) were added to A549 cells cultured in the Step (1), and incubated at 37° C. for 3 h.
# (3) A549 cells treated by different groups in Step (2) were washed twice with PBS, stabilized with ice methanol for 3 min, washed twice with PBS, and sealed with PBST containing 0.3% Triton of 5% FBS for 20 min.
# (4) The cells in Step (3) were washed once with PBS, and the human CathepsinB antibody (made by Abcam) was diluted at a ratio of 1:300. Incubating at room temperature for 1 h, washing with PBS three times for 5 minutes each time, adding 1:1000 fluorescent secondary antibody, and incubating at room temperature for 1 h in the dark.
# (5) The cells in Step (4) were washed with PBS for three times, the films were washed with ultrapure water to remove excess water, and sealed with anti-fluorescence quencher, then cured for 6 h. Fluorescent cells were observed under a confocal microscope and the images were saved.
# CT26 cells = experiment: CT26 cell death test by PI-AnnexinV (fluorescence microscope); assay type: cell-based, mouse; settings: CT26, 24 h
# Description: (1) Experimental method: same as 1.
# [2] = test system: mouse sarcoma cell line S180; experiment: Subcutaneous S180 sarcoma model in mice; assay type: in vivo, KM mice; settings: 2.5 μg pMVA-1 and/or 25 μg DOTAP sc every 3 days x5; 21 days after inoculation
# Experimental: KM mice aged 6-8 weeks were raised. The mouse sarcoma cell line S180 cultured to the logarithmic growth phase was prepared into a cell suspension, and mouse subcutaneous tumor was modeled by subcutaneous injection in the right axilla of each mouse. The number of cells injected into each mouse was 1×10^7, and the injection system was 200 μl for each mouse.
# On the 5th day after inoculation of S180 sarcoma cells, when the tumor could be palpated, 40 tumor-bearing mice were randomly divided into 4 groups according to Table 12: i.e. negative control group (NS), DOTAP control group, pMVA-1 control group, and treatment group pMVA-1/DOTAP group. Then, the mice were subcutaneously administrated according to Table 12: 2.5 μg of plasmid pMVA-1 for each mouse in the pMVA-1 control group; 25 μg of DOTAP for each mouse in DOTAP control group; 2.5 μg of DNA and 25 μg of DOTAP for each mouse in the treatment group of the pMVA-1/DOTAP complex group; that is, the mass ratio of plasmid DNA to DOTAP was 1:10. After that, they were administrated every three days for a total of 5 times. The mice were killed and the tumor-free rate of the mice was counted 21 days after inoculation of the tumor.
smiles,measurement,setting,value
"CCCCCCCC/C=C\CCCCCCCC(=O)OCC(C[N+](C)(C)C)OC(=O)CCCCCCC/C=C\CCCCCCCC (centres unmarked) [DOTAP, 1,2-dioleoyl-3-trimethylammonium-propane]","Annexin-V single positive, PI single positive and PI/Annexin-V double positive cells (PI uptake and Annexin-V)",A549 cells,did not increase significantly
same,average ascites volume,[1]; 15 μg pMVA-1 and/or 75 μg DOTAP ip every 3 days x9,3.11 mL
same,day after inoculation of the tumor cells on which all mice of the group had died,"[1]; 15 μg pMVA-1 and/or 75 μg DOTAP ip every 3 days x9, natural death",39 days
same,average tumor weight,[1]; abdominal tumor weighed after the mice died,8.23 g
same,Lysotracker Red fluorescence intensity,lysosomes in A549 cells,did not change significantly
same,distribution of Cathepsin B in A549 cells,lysosomes of A549 cells,distributed in dots
same,PI-positive and AnnexinV-positive cells,CT26 cells,did not indicate obvious PI uptake and obvious AnnexinV-labeled positive cells
same,tumor-free rate of mice,[2],20%

# — US11738072B2, “Tumor vaccine and uses thereof” (WestVac Biopharma Co., Ltd., priority 2017, dated 2023)
